The numbers were not newly measured in PMC5156321 (Natural product communications, 2014), which cites them from elsewhere.

For orientation: GI50 means the concentration at which growth is held to half of that of the control.

Like-named read-outs stand apart in the source and are kept apart here.

For series [1], the system named is matrix metalloproteinase-3 (MMP-3). Conditions: for IC50: read-out: MMP-3 IC50.
A further series concerns caspase-1. Conditions: for Caspase-1 IC100: tested at 100 μg/mL and 10 μg/mL; for caspase-1 % inhibition: test concentration 100 μg,mL; for IC50: read-out: Caspase-1 IC50.
The test system of series [2] is IL-1β production in induced THP-1 cells. Conditions: for inhibition of cytokine production in induced inflammasome assay: at the nm level, Figure 11; for IC50: read-out: IL-1β production (IC50), LPS and multi-walled carbon nanotubes-induced THP-1 cells.
The subject of a further series is leukemia RPMI-8226. Conditions: NCI-DTP 60.
For the next series, the system named is leukemia SR. The conditions noted are these: NCI-DTP 60.
Series [3] relates to non-small cell lung cancer NCI-H522. Conditions: NCI-DTP 60.
The test system of series [4] is non-small cell lung cancer NCI-H460. Conditions: NCI-DTP 60.
The test system of a further series is leukemia HL-60. Conditions: NCI-DTP 60.
For a further series, the system named is leukemia CCRFCEM. Conditions: NCI-DTP 60.
In a further series the test system is all leukemia cell lines. The conditions noted are these: NCI-DTP 60.
The test system of series [5] is HeLaS3. Conditions: read-out: IC50 (μM) Nuclei Count Proliferation HeLaS3; tested at MSKCC.
Series [6] deals with UMUC3. The conditions noted are these: read-out: IC50 (μM) Alamar Blue Viability UMUC3; tested at MSKCC. For orientation: Resazurin is reduced to fluorescent resorufin, in cell work by metabolically active cells.
Series [7] deals with HeLaS3. The conditions noted are these: read-out: IC50 (μM) Alamar Blue Viability HeLaS3; tested at MSKCC.
Series [8] deals with UMUC3. Conditions: read-out: IC50 (μM) Nuclei Count Proliferation UMUC3; tested at MSKCC.
A further series concerns Y79. The conditions noted are these: read-out: IC50 (μM) Nuclei Count Proliferation Y79; tested at MSKCC.
The subject of the next series is H3255. Conditions: read-out: IC50 (μM) Nuclei Count Proliferation H3255; tested at MSKCC.
Where [9] appears, read: test concentrations 100 μg/mL and 10 μg/mL.

`COC(=O)[C@]12C(=O)[C@H](C)O[C@@H]3OC(=O)[C@](C)(C[C@H]4[C@]5(CO5)C5=CC(=O)OC(C)(C)C5=CC[C@@]41C)[C@@H]32` [B (18), berkeleyacetal B]: the “MMP-3 inhibition, concentration range” value in series [1] is “mM range”. The “caspase-1 inhibition, concentration range” value with caspase-1 is reported as “mM range”.

As for `CC(=O)N[C@H](C(=O)O[C@H]1CCC(C)(C)[C@@H]2CC=C3C(=O)OC[C@]3(O)[C@@]12C)C(C)C` [B (32), Berkedrimane B], the “caspase-1 IC50” value at caspase-1 is 50 µg/mL. For the same molecule, in [2], the “inhibition of cytokine production in induced inflammasome assay” value (shortened to “inhibition of cytokine production”) is recorded as “completely inhibited”.

On to `C/C=C/C1=CC2=CC(=O)[C@@H](C)[C@H](O)[C@H]2CO1` [Berkazaphilone A (25), Berkazaphilone A], for which the “Caspase-1 IC100” value in the series with caspase-1 is listed as “Caspase-1: 100 μg/mL”.

Take `C/C=C/C1=CC2=CC(=O)[C@](C)(OC(=O)c3c(C)cc(O)cc3O)[C@H](O)[C@H]2CO1` [Berkazaphilone B (26), berkazaphilone B]: in the series on caspase-1, the “Caspase-1 IC100” value was “Caspase-1: 10 μg/mL”. Also, in the series with leukemia RPMI-8226, the “leukemia RPMI-8226 log10 GI50” value is “leukemia RPMI-8226: log10 GI50 (−5.67)”. Further, the “concentration completely inhibitory to IL-1β production in THP-1 cells” value in [2] is 2.0 µg/mL.

For `C/C=C/C1=CC2=CC(=O)[C@](C)(O)[C@H](OC(=O)c3c(C)cc(O)cc3O)[C@H]2CO1` [Berkazaphilone C (27), berkazaphilone C], in the series with caspase-1, the “Caspase-1 IC100” value is listed as “Caspase-1: 10 μg/mL”. In addition, in the series with leukemia SR, the “leukemia SR log10 GI50” value is “leukemia SR: log10 GI50 (−6.42)”. In series [2], the “concentration completely inhibitory to IL-1β production in THP-1 cells” value is 20 µg/mL and the “inhibition of cytokine production” value is given as “completely inhibited”.

For the molecule `CC(C)C[C@H]1C[C@H]([C@@H](O)CC(=O)Cc2ccccc2)C(=O)N1` [Berkeleyamide A (21), Berkeleyamide A], in series [3], the “NCI-H522 log10 GI100” value is recorded as “log10 GI100: 10 μM;”.

In the case of `C=C1[C@@]2(C)C[C@H]3C(C)=C4CC(=O)OC(C)(C)C4=CC[C@]3(C)[C@]1(C(=O)OC)C(=O)[C@@](C)(O)C2=O` [Berkeleydione (8), berkeleydione], the results for the IC50 in [1] and in series [2] were 22 µM and 4.4 µM, respectively. In addition, the caspase-1 % inhibition in the series with caspase-1 is 89%. For the same molecule, in [4], the “NCI-H460 log10 GI50” value was “NCI-H460: log10 GI50 −6.40”. For the same molecule, the “activity towards NCI-H460” value in series [4] was “selective activity”.

For `C=C1[C@@]2(C)C[C@H]3[C@]4(C)CC[C@@H](O)C(C)(C)[C@H]4CC[C@]3(C)[C@]1(C(=O)OC)C(=O)[C@@](C)(O)C2=O` [Berkeleyone A (12), Berkeleyone A], the caspase-1 % inhibition with caspase-1 is given as 68%. Moreover, the IC50 in series [2] is 2.7 µM.

For the molecule `C=C1[C@@]2(C)C[C@@H]3[C@](C)(CC=C4C(C)(C)OC(=O)CC[C@]43C)[C@]1(C(=O)OC)C(=O)[C@@](C)(O)C2=O` [Berkeleyone B (13), Berkeleyone B], in the series with caspase-1, the caspase-1 % inhibition is reported as 100%. Also, the IC50 in [2] was 3.7 µM.

`C=C(C)C1=CC[C@@]2(C)[C@@H](C[C@]3(C)C(=C)[C@@]2(C(=O)OC)C(=O)[C@@](C)(O)C3=O)[C@]1(C)CCC(=O)O` [Berkeleyone C (14), Berkeleyone C]: the caspase-1 % inhibition with caspase-1 is reported as 0%. Moreover, the IC50 in series [2] is 37.8 µM.

For the molecule `C=C1[C@@]2(C)C[C@H]3[C@@]4(C)C(=CC[C@]3(C)[C@]1(C(=O)OC)C(=O)[C@@](C)(O)C2=O)C(C)(C)C(=O)C[C@H]4O` [Berkeleytrione (9), berkeleytrione], in series [1], the IC50 is 180 µM.

Regarding `CCCCC[C@@H]1Cc2cc(O)c(C(=O)O)c3c2[C@H](C[C@]2(OC[C@H](CC(=O)C(C)(CC)C(=O)OC)[C@H]2C)O3)O1` (stereo partly drawn) [Berkelic acid (1), berkelic acid], the IC50 in series [1] was 1.87 µM; at caspase-1, 98 µM. Moreover, the “activity in the NCI-DTP60 against OVCAR-3” value in the series with OVCAR-3 is recorded as “active”. For the same molecule, the GI50 with OVCAR-3 (read-out: GI50 NCI-DTP: OVCAR-3, NCI-DTP 60) is 0.091 µM.

For the molecule `COc1cc(OC)c2c(c1)C(=O)O[C@H]2c1coc(C)cc1=O` [Penisimplicissimum (30), penisimplicissin], the “leukemia HL-60 log10 GI50” value in the series on leukemia HL-60 is on record as “leukemia HL-60: log10 GI50 (−5.83)”. In the series with leukemia CCRFCEM, the “leukemia CCRFCEM log10 GI50” value is given as “leukemia CCRFCEM: log10 GI50 (−6.70)”. Besides, the “Caspase-1 IC100” value with caspase-1 is “Caspase-1: 100 μg/mL”.

For the molecule `C=C1[C@@]2(C)C[C@H]3[C@]4(C)CCC(=O)OC(C)(C)[C@@H]4CC[C@]3(C)[C@]1(C(=O)OC)C(=O)[C@@](C)(O)C2=O` [Preaustinoid A1(11), Preaustinoid A1], the caspase-1 % inhibition in the series with caspase-1 is recorded as 77%. Moreover, in [2], the IC50 was 34.3 µM.

For `C=C1[C@@]2(C)C[C@H]3[C@]4(C)CCC(=O)C(C)(C)[C@H]4CC[C@]3(C)[C@]1(C(=O)OC)C(=O)[C@@](C)(O)C2=O` [Preaustinoid A (10), preaustinoid A], in the series on caspase-1, the “caspase-1 inhibition” value was “inhibited caspase-1 activity” and the caspase-1 % inhibition is listed as 97%. Also, the IC50 in series [2] was 15.5 µM.

Take `C/C=C/c1cc(=O)c([C@@H]2OC(=O)c3cc(OC)cc(OC)c32)co1` [Vermistatin (28), vermistatin]: in the series with caspase-1 (setting [9]), the “caspase-1 inhibition” value was “not inhibitory”.

With `C[C@@H]1O[C@@H]2OC(=O)[C@]3(C)C[C@@H]4[C@](C)(C(=O)C=C5C(=CC(=O)OC5(C)C)[C@@]45CO5)[C@H](C1=O)[C@H]23` [berkeleyacetal C (19), berkeleyacetal C], in series [1], the “MMP-3 inhibition, concentration range” value is listed as “micromolar range”. For the same molecule, the “growth inhibition of all leukemia cell lines” value with all leukemia cell lines is recorded as “inhibited the growth”. The “caspase-1 inhibition, concentration range” value in the series on caspase-1 is recorded as “micromolar range”. The “growth inhibition of NCI H460” value in series [4] is listed as “inhibited the growth”.

Take `COC(=O)[C@]12C(=O)[C@H](C)O[C@@H]3OC(=O)[C@](C)(C[C@H]4C(C)=C5CC(=O)OC(C)(C)C5=CC[C@@]41C)[C@@H]32` [berkeleyacetals A (17), berkeleyacetal A]: the “MMP-3 inhibition, concentration range” value in series [1] is reported as “mM range”. Also, in the series on caspase-1, the “caspase-1 inhibition, concentration range” value is given as “mM range”.

As for `C/C=C(\C)C(=O)O[C@H]1C=CC(=O)O[C@H]1/C=C\C(=O)C(C)O` (stereo partly drawn) [compound 33, Phomopsolide A], the IC50 was 5 µM with HeLaS3 [5]; 100 µM in series [1]; 6.5 µM in the series on UMUC3 [6]; 6.3 µM in the series with HeLaS3 [7]; 4.8 µM in the series on UMUC3 [8].

Take `C/C=C(\C)C(=O)O[C@H]1C=CC(=O)O[C@H]1/C=C/[C@H](O)[C@H](C)O` [compound 34, Phomopsolide B]: in the series with UMUC3 [8], the IC50 was 6.1 µM.

`C/C=C(\C)C(=O)O[C@H]1C=CC(=O)O[C@H]1/C=C/C(=O)[C@H](C)O` [compound 35, Phomopsolide C]: the IC50 in the series on Y79 is 1.4 µM; in the series with HeLaS3 [5], 2.7 µM; in the series on UMUC3 [6], 2.2 µM; in the series on H3255, 2.6 µM; in the series on HeLaS3 [7] it was 3.6 µM; in the series on UMUC3 [8], 1.4 µM.

In the case of `C/C=C(\C)C(=O)O[C@H]1C=CC(=O)O[C@H]1CCC(=O)[C@H](C)O` [compound 36, Phomopsolide E], the IC50 in the series with HeLaS3 [5] was 7.3 µM; in the series on UMUC3 [8] it was 6.6 µM.

Regarding `CCCCCCCCCC(=O)[C@@]12O[C@@]13C1=COC(C[C@H](C)O)=CC1=CC(=O)[C@]3(C)OC2=O` [compound 45, berkchaetoazaphilone B], the “caspase-1 inhibition” value in the series on caspase-1 is given as “strongest caspase-1 inhibitor”.

For `CCCc1cc(=O)c([C@@H]2OC(=O)c3cc(OC)cc(OC)c32)co1` [dihydrovermistatin (29), dihydrovermistatin], the “caspase-1 inhibition” value in the series with caspase-1 (setting [9]) was “not inhibitory”.

For the molecule “Berkebisabolane A [Berkebisabolane A (4)]”, the IC50 is 0.28 µM in [1] and 23 µM on caspase-1.

On to “Berkebisabolane B [Berkebisabolane B (5)]”, for which the figures for the IC50 (in series [1]; at caspase-1) were 0.315 µM and 23 µM, respectively.

Take “Berkebisabolane C [Berkebisabolane C (6)]”: the IC50 in series [1] is 0.34 µM; on caspase-1, 23 µM.

Regarding Berkedrimane A [Berkedrimane A (31)], the “caspase-1 IC50” value on caspase-1 was 60 µg/mL. Besides, the “inhibition of cytokine production” value in [2] was “completely inhibited”.

Take phompyrone [compound 38]: the IC50 in [1] is greater than 100 µM.
